# In patent EP0420120A2, “Optically active benzyl alcohol compound and pharmaceutical composition” (HOKURIKU PHARMACEUTICAL CO., LTD., priority 1989, dated 1991):
# Key:
# isolated atrium = assay: Effects on isolated atrium of guinea-pigs (spontaneous beating rate of right atrium); type: cell-based
# Method: Male Hartley guinea-pigs weighing about 500 g were killed and the atria were isolated. Each right atrium was mounted vertically in an organ bath containing Krebs-Henseleit solution and the spontaneous beating rate was recorded. The bath medium was maintained at 30°C and was equilibrated with a gas mixture consisting of 95% O₂ + 5% CO₂. The test compounds were added cumulatively to the bath. ED₅₀ values for concentration-response curves which produce 50% increases of the basal spontaneous beating rate were calculated. The results are shown in Table 3 The selcctive relaxing activities of the compound of the present invention on the uterine and the bladder smooth muscle were compared with positive chronotropic effect in the atrium.
# [1] = system: isolated uterine smooth muscle; assay: Effects on isolated uterine smooth muscle of rats (relaxation of oxytocin pre-contracted preparations); type: cell-based
# Method: Non-pregnant female Wistar rats weighing about 200 g were killed and the uteruses were isolated. Each uterine preparation (15 mm in length) was mounted vertically in an organ bath containing modified Locke-Ringer solution of following composition: 150 mM NaCl, 5.4 mM KCl, 0.36 mM CaCl₂, 0.19 mM MgCl₂, 4.8 mM NaHCO₃, 0.15 mM KH₂ PO₄, 0.56 mM Na₂ HPO₄ and 2.8 mM Glucose. The bath medium was maintained at 37 °C and was equilibrated with a gas mixture consisting of 95% O₂ + 5% CO₂. The uterine preparations were pre-contracted with oxytocin (10 ⁻² U/ml) and the muscle relaxations induced by the test compounds were recorded isotonically. The test compounds were added cumulatively to the bath. ED₅₀ values for concentration-response curves which produce 50% relaxations of the maximal relaxations (10 ⁻⁶ M isoproterenol) were calculated.
compound,measurement,setting,value
"CC(C)(C)NCC(O)c1ccc(O)cc1Cl (single isomer, unassigned; (-)) [(-)-enantiomer, (-)-α -[(tert-Butylamino)methyl]-2-chloro-4-hydroxybenzyl alcohol]",Selectivity Bladder,isolated atrium; ED₅₀ value (positive chronotropic effect in the atrium) / ED₅₀ value (relaxing effect on the bladder smooth muscle),462
same,Selectivity Uterus,isolated atrium; ED₅₀ value (positive chronotropic effect in the atrium) / ED₅₀ value (relaxing effect on the uterine smooth muscle),21
same,effect relative to ritodrine,"[1]; from the ED₅₀ values of Table 1, fold greater than ritodrine",~25 fold
same,effect relative to the (+)-enantiomer,"[1]; from the ED₅₀ values of Table 1, fold greater than the (+)-enantiomer",about 130 fold
